Patent publication US10470445B2, “Fumarylacetoacetate hydrolase (Fah)-deficient and immunodeficient rats and uses thereof” (YECURIS CORPORATION, priority 2011, dated 2019)

Tested on: Nude (RNU) rats
Assay: FK506 immunosuppression of nude rats transplanted with human hepatocytes, body size
Assay type: in vivo, rat
Conditions: 2 mg/kg/day FK506, four weeks after hepatocyte injection
Method: Forty nude rat pups (2 weeks old) were obtained from Charles River and acclimated for a week before the study began. The rats were assigned to + or −immunosuppressive groups, with controls in each group (see Table 3 below). Rats assigned to the +immunosuppressive group were treated with 2 mg/kg/day subcutaneous doses of FK506 (Tacrolimus) throughout the study, with the initial dosage being 20 μl of 5 mg/mL FK506 ([…]) per day, based upon an average initial animal weight of 50 g at the start of the study. The −immunosuppression rats were not treated with FK506, but were injected subcutaneously with the same volume of saline throughout the study. All of the rats were then given an intravenous injection (retroorbital) of uPA adenovirus (2.5×10^9 plaque forming units (PFU) per 50 g rat) 48-96 hours before hepatocyte injection.
Two weeks after study commencement, the dose of FK506 was increased to 30 μl of 5 mg/mL due to an increase in animal weight. Four weeks after study commencement, the dose of FK506 was again increased to 25 μl of 10 mg/mL to account for growth of the rats.
Four weeks after hepatocyte injection (˜5 weeks after study commencement), at least 50 μl of whole blood was collected from the rats and allowed to clot for 1 hour at room temperature. Serum was collected by centrifuging the whole blood at 1,500 rpm×15 minutes. […]

Q: With `C=CC[C@@H]1/C=C(\C)C[C@H](C)C[C@H](OC)[C@H]2O[C@@](O)(C(=O)C(=O)N3CCCC[C@H]3C(=O)O[C@H](/C(C)=C/[C@@H]3CC[C@@H](O)[C@H](OC)C3)[C@H](C)[C@@H](O)CC1=O)[C@H](C)C[C@@H]2OC` [FK506] as the molecule, how does the “body size on reweighing versus non-treated rats” value read?
A: The value was “significantly smaller than their non-treated counterparts”.
